# From patent US9809623B2, “α4β7 peptide monomer and dimer antagonists” (Protagonist Therapeutics, Inc., priority 2014, dated 2017)
# Where two headings read alike, the source gives them in different places. Numbered stars: 1 amine (or outer) side, 2 acyl side, 3 side chain; on linkers, the order of the positions; unused ones are H or OH. Bridge positions count the residues as written; N and C are the ends. Square brackets hold non-standard residues; d marks the D form. Peptide text beside a SMILES is read from it. I, II: the chains in the order shown. Phe(4-tBu) = CC(C)(C)c1ccc(C[C@H](N)C(=O)O)cc1; 2Nal = N[C@@H](Cc1ccc2ccccc2c1)C(=O)O; Diglycolyl = O=C(COCC(=O)[*:2])[*:1]; NMeR = CN[C@@H](CCCNC(=N)N)C(=O)O; hPhe = N[C@@H](CCc1ccccc1)C(=O)O; Aic = NC1(C(=O)O)Cc2ccccc2C1; NMeK = CN[C@@H](CCCCN)C(=O)O; Pen = CC(C)(S)[C@H](N)C(=O)O; βAla = NCCC(=O)O
# How the values were obtained:
# [1] = Simulated Intestinal Fluid (SIF) Stability Assay; assay type: in vitro ADME, porcine; conditions: pig, pH 6.5, Table 3-B, > means experiment was stopped at that time and half life was not reached, read-out: Stabilty SIF t1/2
# Procedure, shortened: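 Peptides (22 μM final) incubated at 37 °C in FASSIF (pH 6.5) with 1% porcine pancreatin; aliquots quenched at various times and analyzed by LC-MS/MS against internal standard. Half-life from first-order exponential decay fit of percent remaining.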
# rh integrin α4β7 = target: T1, rh integrin α4β7 (Homo sapiens, UniProt P13612+P26010); assay: α4β7-MAdCAM Competition ELISA; assay type: binding; conditions: Table 3-B, Potency (α4β7); range classes; read-out: α4β7 ELISA IC50
# T1 construct: purchased R&D Systems 5397-A30
# Procedure: A nickel coated plate (Pierce #15442) was coated with rh integrin α4β7 (R&D Systems #5397-A30) at 800 ng/well and incubated at room temperature with shaking for 1 hr. The solution was then removed by shaking and blocked with assay buffer (50 mM Tris-HCl pH7.6, 150 mM NaCl, 1 mM MnCl2 or MgCl2, 0.05% Tween-20 and 0.5% BSA) at 250 ul/well. The plate was then incubated at room temperature for 1 hr. Each well was washed 3 times with wash buffer (50 mM Tris-HCl pH7.6, 100 mM NaCl, 1 mM MnCl2 or MgCl2, 0.05% Tween-20). To each well was added 25 ul of a serial dilution (3-fold dilutions in assay buffer) of peptide starting at 20 μM. 25 ul of recombinant human MAdCAM-1 (R&D Systems #6056-MC) was then added to each well at a fixed concentration 20 nM. The final starting peptide concentration was 10 μM, and the final MAdCAM-1 concentration was 10 nM. The plates were then incubated at room temperature for 1 hr to reach binding equilibrium. The wells were then washed three times with wash buffer. 50 ul of mouse anti-human IgG1-HRP (Invitrogen # A10648) diluted in 1:2000 in assay buffer was then added to each well. The wells were incubated at room temperature for 45 min with shaking. The wells were then washed 3 times with wash buffer. 100 ul of 3,3′,5,5′-Tetramethylbenzidine (TMB) were then added to each well and closely observe during development time. The reaction was stopped with 2N H2SO4 and absorbance was read at 450 nm.
# TMB is a chromogenic substrate suitable for use in ELISA procedures, which utilize horseradish peroxidase conjugates. This substrate produces a soluble end product that is blue in color and can be read spectrophotometrically at 370 or 655 nm. The reaction maybe stopped with 2 M H2S04, resulting in a yellow solution that is read at 450 nm. Each tablet contains 1 mg of TMB substrate. To prepare TMB Substrate Solution, dissolve one 3,3′,5,5′-tetramethylbenzidine tablet in 1 ml of DMSO and add to 9 ml of 0.05 M Phosphate-Citrate Buffer, pH 5.0. Add 2 μl of fresh 30% hydrogen peroxide (Product No. H 1009) per 10 ml of substrate buffer solution, immediately prior to use.
# α4β7 = α4β7 (Homo sapiens, UniProt P13612+P26010); assay: α4β7-MAdCAM Cell Adhesion Assay (RPMI 8866 human cells); assay type: cell-based; parameters: host or cells: RPMI 8866 human B lymphoblastoid cells; conditions: Table 3-B, Potency (α4β7); range classes; read-out: α4β7 cell (Hu) IC50
# Procedure, shortened: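 Washed RPMI 8866 cells (200,000/well) in DMEM with 0.1% BSA, 10 mM HEPES pH 7, 1 mM MnCl2 adhered to rh MAdCAM-1/Fc-coated wells with serially diluted peptides, 30-45 min at 37 °C. After three washes, bound cells quantified by MTT, A570, cell-free background subtracted for dose response.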
# [2] = simulated intestinal fluid (SIF) with 1% porcine pancreatin
# [3] = simulated intestinal fluid (SIF) with porcine pancreatin
# T1 sequence (P13612 34-977 limits assumed): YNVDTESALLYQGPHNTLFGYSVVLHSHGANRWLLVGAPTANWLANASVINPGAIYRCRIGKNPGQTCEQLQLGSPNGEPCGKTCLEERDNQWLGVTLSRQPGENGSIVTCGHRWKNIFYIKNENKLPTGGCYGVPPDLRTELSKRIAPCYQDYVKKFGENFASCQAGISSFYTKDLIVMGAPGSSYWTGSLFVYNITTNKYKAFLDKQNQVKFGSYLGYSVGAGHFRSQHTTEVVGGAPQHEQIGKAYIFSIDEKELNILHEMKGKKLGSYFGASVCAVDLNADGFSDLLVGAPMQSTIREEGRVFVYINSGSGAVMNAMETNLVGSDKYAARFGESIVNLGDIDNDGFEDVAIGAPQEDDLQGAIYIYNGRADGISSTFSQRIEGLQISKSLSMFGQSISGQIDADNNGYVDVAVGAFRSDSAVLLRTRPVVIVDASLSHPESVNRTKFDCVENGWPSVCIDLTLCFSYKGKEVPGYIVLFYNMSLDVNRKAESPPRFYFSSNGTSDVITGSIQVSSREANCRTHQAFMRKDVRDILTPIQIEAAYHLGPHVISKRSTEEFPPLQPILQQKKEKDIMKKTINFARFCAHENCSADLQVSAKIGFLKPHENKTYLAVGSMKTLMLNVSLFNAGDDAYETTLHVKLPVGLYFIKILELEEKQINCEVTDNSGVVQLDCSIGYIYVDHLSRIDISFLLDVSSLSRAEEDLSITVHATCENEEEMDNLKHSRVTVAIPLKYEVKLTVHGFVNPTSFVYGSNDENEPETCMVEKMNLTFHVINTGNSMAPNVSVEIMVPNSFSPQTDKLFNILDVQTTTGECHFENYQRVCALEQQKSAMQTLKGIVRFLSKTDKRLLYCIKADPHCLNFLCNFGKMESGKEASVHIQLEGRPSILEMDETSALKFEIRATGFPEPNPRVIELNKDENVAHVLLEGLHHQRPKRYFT
# T1 sequence (P26010 20-723 limits assumed): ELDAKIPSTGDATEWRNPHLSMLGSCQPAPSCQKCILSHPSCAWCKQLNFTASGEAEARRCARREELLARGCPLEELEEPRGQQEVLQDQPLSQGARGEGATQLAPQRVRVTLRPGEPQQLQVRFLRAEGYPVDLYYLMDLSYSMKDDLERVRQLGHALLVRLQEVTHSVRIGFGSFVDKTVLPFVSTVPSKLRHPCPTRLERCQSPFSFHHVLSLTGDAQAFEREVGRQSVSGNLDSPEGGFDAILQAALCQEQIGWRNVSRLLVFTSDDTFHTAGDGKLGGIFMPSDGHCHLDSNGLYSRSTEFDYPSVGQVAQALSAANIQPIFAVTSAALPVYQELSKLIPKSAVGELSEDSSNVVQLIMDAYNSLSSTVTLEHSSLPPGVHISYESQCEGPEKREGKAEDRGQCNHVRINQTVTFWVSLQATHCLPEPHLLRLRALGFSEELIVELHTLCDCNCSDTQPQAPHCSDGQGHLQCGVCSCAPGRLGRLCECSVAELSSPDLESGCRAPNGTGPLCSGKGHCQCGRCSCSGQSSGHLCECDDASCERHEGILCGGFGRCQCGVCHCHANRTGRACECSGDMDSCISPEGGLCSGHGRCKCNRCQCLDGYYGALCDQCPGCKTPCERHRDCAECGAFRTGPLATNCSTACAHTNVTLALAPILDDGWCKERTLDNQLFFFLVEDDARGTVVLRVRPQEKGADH
# Sequence of α4β7 (P13612 34-1032): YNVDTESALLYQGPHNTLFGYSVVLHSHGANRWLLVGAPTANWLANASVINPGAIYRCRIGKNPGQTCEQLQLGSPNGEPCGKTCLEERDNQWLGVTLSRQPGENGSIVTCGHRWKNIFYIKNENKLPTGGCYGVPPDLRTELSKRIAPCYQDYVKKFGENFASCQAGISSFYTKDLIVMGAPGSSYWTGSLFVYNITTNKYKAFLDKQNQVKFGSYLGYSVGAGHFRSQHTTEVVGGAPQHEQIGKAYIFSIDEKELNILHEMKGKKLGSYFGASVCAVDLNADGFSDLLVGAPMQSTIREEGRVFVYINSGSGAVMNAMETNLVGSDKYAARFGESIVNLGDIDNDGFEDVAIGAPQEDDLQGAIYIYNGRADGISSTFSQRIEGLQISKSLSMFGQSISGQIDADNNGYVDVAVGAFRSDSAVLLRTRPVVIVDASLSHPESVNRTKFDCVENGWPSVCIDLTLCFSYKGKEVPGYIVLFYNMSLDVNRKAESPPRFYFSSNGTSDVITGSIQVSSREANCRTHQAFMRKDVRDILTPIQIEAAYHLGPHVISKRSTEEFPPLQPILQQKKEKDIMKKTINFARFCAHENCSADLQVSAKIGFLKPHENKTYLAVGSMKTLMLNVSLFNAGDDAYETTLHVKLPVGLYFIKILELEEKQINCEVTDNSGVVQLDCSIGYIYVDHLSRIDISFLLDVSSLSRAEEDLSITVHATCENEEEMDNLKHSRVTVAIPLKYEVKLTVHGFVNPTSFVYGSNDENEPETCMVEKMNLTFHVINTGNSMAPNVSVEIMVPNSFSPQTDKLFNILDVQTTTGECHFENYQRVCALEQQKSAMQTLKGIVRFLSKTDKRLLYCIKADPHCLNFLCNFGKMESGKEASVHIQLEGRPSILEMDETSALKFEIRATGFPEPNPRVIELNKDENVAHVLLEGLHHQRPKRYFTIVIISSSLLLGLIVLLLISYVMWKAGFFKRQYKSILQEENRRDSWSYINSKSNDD
# Sequence of α4β7 (P26010 20-798): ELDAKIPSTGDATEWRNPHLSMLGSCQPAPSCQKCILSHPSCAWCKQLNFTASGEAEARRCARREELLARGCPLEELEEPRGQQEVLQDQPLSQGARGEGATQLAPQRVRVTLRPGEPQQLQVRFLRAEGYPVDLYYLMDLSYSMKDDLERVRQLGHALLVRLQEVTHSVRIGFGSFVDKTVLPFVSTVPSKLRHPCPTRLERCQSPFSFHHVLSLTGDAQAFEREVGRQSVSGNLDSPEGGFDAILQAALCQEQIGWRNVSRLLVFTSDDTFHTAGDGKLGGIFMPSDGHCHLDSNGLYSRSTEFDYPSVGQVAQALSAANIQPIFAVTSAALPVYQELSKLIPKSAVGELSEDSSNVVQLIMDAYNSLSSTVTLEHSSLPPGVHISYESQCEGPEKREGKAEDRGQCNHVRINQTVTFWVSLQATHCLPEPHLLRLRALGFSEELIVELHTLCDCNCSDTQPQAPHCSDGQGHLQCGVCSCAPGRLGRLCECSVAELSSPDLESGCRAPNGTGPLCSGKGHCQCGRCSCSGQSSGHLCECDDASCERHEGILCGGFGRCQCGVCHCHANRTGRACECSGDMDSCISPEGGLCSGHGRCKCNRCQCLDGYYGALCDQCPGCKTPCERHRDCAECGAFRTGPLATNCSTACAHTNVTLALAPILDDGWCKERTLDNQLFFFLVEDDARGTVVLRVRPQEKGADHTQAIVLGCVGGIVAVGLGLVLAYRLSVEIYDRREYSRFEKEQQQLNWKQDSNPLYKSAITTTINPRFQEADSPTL
structure (smiles),measurement,setting,value
CC(=O)N[C@@H]1C(=O)N(C)[C@@H](CCCNC(=N)N)C(=O)N[C@H](CC(=O)O)C(=O)N[C@@H](CC(=O)O)C(=O)N[C@@H]([C@@H](C)O)C(=O)N[C@@H](CC(C)C)C(=O)N[C@H](C(=O)N[C@@H](Cc2c[nH]c3ccccc23)C(=O)N[C@@H](CCC(=O)O)C(=O)N[C@H](CCCCN)C(N)=O)C(C)(C)SSC1(C)C [compound 48] (Ac-[Pen][NMeR][dD]DTL[Pen]WE[dK]-NH2; disulfide 1-7),half-life at 22 μM,[1]; [2],> 3 h
same,IC50,rh integrin α4β7,1000 to 10000 nM
CC(=O)N[C@@H]1C(=O)N(C)[C@@H](CCCNC(=N)N)C(=O)N[C@@H](CO)C(=O)N[C@@H](CC(=O)O)C(=O)N[C@@H]([C@@H](C)O)C(=O)N[C@@H](CC(C)C)C(=O)N[C@H](C(=O)N[C@@H](Cc2c[nH]c3ccccc23)C(=O)NC2(C(=O)N[C@H](CCCCN)C(N)=O)Cc3ccccc3C2)C(C)(C)SSC1(C)C [compound 51] (Ac-[Pen][NMeR]SDTL[Pen]W[Aic][dK]-NH2; disulfide 1-7),half-life at 22 μM,[1]; [2],3 h
same,IC50,rh integrin α4β7,25 to 50 nM
CC(C)C[C@@H]1NC(=O)[C@H]([C@@H](C)O)NC(=O)[C@H](CC(=O)O)NC(=O)[C@H](CO)NC(=O)[C@H](CCCNC(=N)N)N(C)C(=O)[C@@H](NC(=O)CCN)C(C)(C)SSC(C)(C)[C@@H](C(=O)N[C@@H](Cc2c[nH]c3ccccc23)C(=O)N[C@@H](CCC(=O)O)C(N)=O)NC1=O [compound 52] (H-[βAla][Pen][NMeR]SDTL[Pen]WE-NH2; disulfide 2-8),half-life at 22 μM,[1]; [3],1.95 h
same,IC50,rh integrin α4β7,10 to 25 nM
same,IC50,α4β7,100 to 500 nM
CC(=O)N[C@@H]1C(=O)N(C)[C@@H](CCCNC(=N)N)C(=O)N[C@@H](CO)C(=O)N[C@@H](CC(=O)O)C(=O)N[C@@H](CC(=O)O)C(=O)N[C@@H](CC(C)C)C(=O)N[C@H](C(=O)N[C@@H](Cc2c[nH]c3ccccc23)C(=O)N[C@@H](CCC(=O)O)C(=O)N[C@H](CCCCN)C(N)=O)C(C)(C)SSC1(C)C [compound 46] (Ac-[Pen][NMeR]SDDL[Pen]WE[dK]-NH2; disulfide 1-7),half-life at 22 μM,[1]; [2],> 3 h
same,IC50,rh integrin α4β7,1000 to 10000 nM
CC(C)C[C@@H]1NC(=O)[C@H]([C@@H](C)O)NC(=O)[C@H](CC(=O)O)NC(=O)[C@H](CO)NC(=O)[C@H](CCCNC(=N)N)N(C)C(=O)[C@@H](NC(=O)CCN)C(C)(C)SSC(C)(C)[C@@H](C(=O)N[C@@H](Cc2c[nH]c3ccccc23)C(=O)N[C@H](CCC(=O)O)C(N)=O)NC1=O [compound 53] (H-[βAla][Pen][NMeR]SDTL[Pen]W[dE]-NH2; disulfide 2-8),half-life at 22 μM,[1]; [3],> 3 h
same,IC50,rh integrin α4β7,10 to 25 nM
CC(=O)N[C@@H]1C(=O)N(C)[C@@H](CCCNC(=N)N)C(=O)N[C@@H](CO)C(=O)N[C@@H](CC(=O)O)C(=O)N[C@@H]([C@@H](C)O)C(=O)N[C@@H](CC(C)C)C(=O)N[C@H](C(=O)N[C@@H](Cc2ccc3ccccc3c2)C(=O)N[C@@H](CCc2ccccc2)C(=O)N[C@H](CCCCN)C(N)=O)C(C)(C)SSC1(C)C [compound 50] (Ac-[Pen][NMeR]SDTL[Pen][2Nal][hPhe][dK]-NH2; disulfide 1-7),half-life at 22 μM,[1]; [2],1.73 h
same,IC50,rh integrin α4β7,10 to 25 nM
CC(=O)N[C@@H]1C(=O)N(C)[C@@H](CCCNC(=N)N)C(=O)N[C@@H](CO)C(=O)N[C@@H](CC(=O)O)C(=O)N[C@@H]([C@@H](C)O)C(=O)N[C@@H](CC(C)C)C(=O)N[C@H](C(=O)N[C@@H](Cc2c[nH]c3ccccc23)C(=O)N[C@@H](CCC(=O)O)C(=O)N2CCC[C@H]2C(=O)N[C@H](CCCCN)C(N)=O)C(C)(C)SSC1(C)C [compound 49] (Ac-[Pen][NMeR]SDTL[Pen]WEP[dK]-NH2; disulfide 1-7),half-life at 22 μM,[1]; [2],> 3 h
same,IC50,rh integrin α4β7,10 to 25 nM
"CC(=O)N[C@@H]1C(=O)N(C)[C@@H](CCCNC(=N)N)C(=O)N[C@@H](CO)C(=O)N[C@@H](CC(=O)O)C(=O)N[C@@H]([C@@H](C)O)C(=O)N[C@@H](CC(C)C)C(=O)N[C@H](C(=O)N[C@@H](Cc2ccc3ccccc3c2)C(=O)N[C@H](CCC(=O)O)C(=O)N[C@H](CCCCNC(=O)COCC(=O)NCCCC[C@@H](NC(=O)[C@@H](CCC(=O)O)NC(=O)[C@H](Cc2ccc3ccccc3c2)NC(=O)[C@H]2NC(=O)[C@H](CC(C)C)NC(=O)[C@H]([C@@H](C)O)NC(=O)[C@H](CC(=O)O)NC(=O)[C@H](CO)NC(=O)[C@H](CCCNC(=N)N)N(C)C(=O)[C@@H](NC(C)=O)C(C)(C)SSC2(C)C)C(N)=O)C(N)=O)C(C)(C)SSC1(C)C [compound 29] (I: Ac-[Pen][NMeR]SDTL[Pen][2Nal][dE][dK]-NH2 / II: Ac-[Pen][NMeR]SDTL[Pen][2Nal][dE][dK]-NH2; disulfide I:1-I:7, II:1-II:7; linker I:10-II:10 via Diglycolyl)",half-life at 22 μM,[1]; [2],> 3 h
same,IC50,rh integrin α4β7,< 10 nM
same,IC50,α4β7,10 to 25 nM
"CC(=O)N[C@@H]1C(=O)N(C)[C@@H](CCCNC(=N)N)C(=O)N[C@@H](CO)C(=O)N[C@@H](CC(=O)O)C(=O)N[C@@H]([C@@H](C)O)C(=O)N[C@@H](CC(C)C)C(=O)N[C@H](C(=O)N[C@@H](Cc2ccc3ccccc3c2)C(=O)N[C@@H](CCC(=O)O)C(=O)N(C)[C@@H](CCCCNC(=O)COCC(=O)NCCCC[C@@H](C(N)=O)N(C)C(=O)[C@H](CCC(=O)O)NC(=O)[C@H](Cc2ccc3ccccc3c2)NC(=O)[C@H]2NC(=O)[C@H](CC(C)C)NC(=O)[C@H]([C@@H](C)O)NC(=O)[C@H](CC(=O)O)NC(=O)[C@H](CO)NC(=O)[C@H](CCCNC(=N)N)N(C)C(=O)[C@@H](NC(C)=O)C(C)(C)SSC2(C)C)C(N)=O)C(C)(C)SSC1(C)C [compound 138] (I: Ac-[Pen][NMeR]SDTL[Pen][2Nal]E[NMeK]-NH2 / II: Ac-[Pen][NMeR]SDTL[Pen][2Nal]E[NMeK]-NH2; disulfide I:1-I:7, II:1-II:7; linker I:10-II:10 via Diglycolyl)",IC50,rh integrin α4β7,10 to 25 nM
same,IC50,α4β7,10 to 25 nM
CC(=O)N[C@@H]1C(=O)N(C)[C@@H](CCCNC(=N)N)C(=O)N[C@@H](CO)C(=O)N[C@@H](CC(=O)O)C(=O)N[C@@H]([C@@H](C)O)C(=O)N[C@@H](CC(C)C)C(=O)N[C@H](C(=O)N[C@@H](Cc2ccc(C(C)(C)C)cc2)C(=O)O)C(C)(C)SSC1(C)C [compound 151] (Ac-[Pen][NMeR]SDTL[Pen][Phe(4-tBu)]-OH; disulfide 1-7),half-life at 22 μM,[1]; [2],3.12 h
same,IC50,rh integrin α4β7,10 to 25 nM
same,IC50,α4β7,50 to 100 nM
